From ChEMBL document CHEMBL1201862, “PubChem BioAssay data set” (2004)
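Cells were grown in 96-well plates and exposed to each compound for 48 hours at five concentrations; endpoints were interpolated linearly between bracketing concentrations, or set to the highest concentration if not reached. At the GI50, growth is halved.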 Calls of active or inactive are those of the source. Cut-off read from the data, not from the text of the source: active = GI50 up to about 1.1 µM and inactive = higher.

How the values were obtained:
Experiment in all cases: inhibition of tumour cell growth, NCI panel, 48 h
[1] = system: 786-0
[2] = system: A498
[3] = system: A549
[4] = system: ACHN
[5] = system: CAKI-1
[6] = system: CCRF-CEM
[7] = system: COLO 205
[8] = system: DLD-1
[9] = system: DMS-114
[10] = system: DMS-273
[11] = system: EKVX
[12] = system: HCC 2998
[13] = system: HCT-116
[14] = system: HCT-15
[15] = system: HL-60
[16] = system: HOP-18
[17] = system: HOP-62
[18] = system: HOP-92
[19] = system: HT-29
[20] = system: IGROV-1
[21] = system: K562
[22] = system: KM-20L2
[23] = system: KM12
[24] = system: LOX IMVI
[25] = system: LXFL 529
[26] = system: M14
[27] = system: M19-MEL
[28] = system: MOLT-4
[29] = system: Malme-3M
[30] = system: NCI-H226
[31] = system: NCI-H23
[32] = system: NCI-H460
[33] = system: NCI-H522
[34] = system: OVCAR-3
[35] = system: OVCAR-4
[36] = system: OVCAR-5
[37] = system: OVCAR-8
[38] = system: RPMI-8226
[39] = system: RXF 393
[40] = system: RXF 631
[41] = system: SF-268
[42] = system: SF-295
[43] = system: SF-539
[44] = system: SK-MEL-28
[45] = system: SK-MEL-2
[46] = system: SK-MEL-5
[47] = system: SK-OV-3
[48] = system: SN12C
[49] = system: SNB-19
[50] = system: SNB-75
[51] = system: SNB-78
[52] = system: SR
[53] = system: SW-620
[54] = system: TK-10
[55] = system: U-251
[56] = system: UACC-257
[57] = system: UACC-62
[58] = system: UO-31
[59] = system: XF498

## CCOC(=O)C1C(c2ccccc2)=C(c2ccccc2)C(c2ccccc2)=C1c1ccccc1
[1]
  GI50: 21 µM (inactive)
[2]
  GI50: 20 µM (inactive)
[3]
  GI50: 33.7 µM (inactive)
[4]
  GI50: 28.6 µM (inactive)
[5]
  GI50: > 65.3 µM (inactive)
[6]
  GI50: > 79.3 µM (inactive)
[7]
  GI50: > 100 µM (inactive)
[8]
  GI50: > 100 µM (inactive)
[9]
  GI50: 27.8 µM (inactive)
[10]
  GI50: 31.3 µM (inactive)
[11]
  GI50: > 88.3 µM (inactive)
[12]
  GI50: > 100 µM (inactive)
[13]
  GI50: 20.8 µM (inactive)
[14]
  GI50: 72.1 µM
[15]
  GI50: 57.1 µM (inactive)
[16]
  GI50: 23.7 µM (inactive)
[17]
  GI50: 12.6 µM (inactive)
[18]
  GI50: 12.4 µM (inactive)
[19]
  GI50: > 100 µM (inactive)
[20]
  GI50: 29.2 µM (inactive)
[21]
  GI50: 35 µM (inactive)
[22]
  GI50: > 100 µM (inactive)
[23]
  GI50: > 100 µM (inactive)
[24]
  GI50: 58.9 µM (inactive)
[25]
  GI50: 41.8 µM (inactive)
[26]
  GI50: 57.4 µM (inactive)
[27]
  GI50: 41.4 µM (inactive)
[28]
  GI50: 50 µM (inactive)
[29]
  GI50: 40.9 µM (inactive)
[30]
  GI50: > 39.2 µM (inactive)
[31]
  GI50: 34.2 µM (inactive)
[32]
  GI50: 51.8 µM (inactive)
[33]
  GI50: 49.8 µM (inactive)
[34]
  GI50: 26.3 µM (inactive)
[35]
  GI50: 18.2 µM (inactive)
[36]
  GI50: > 100 µM (inactive)
[37]
  GI50: 25.7 µM (inactive)
[38]
  GI50: 19.6 µM (inactive)
[39]
  GI50: 15.3 µM (inactive)
[40]
  GI50: 50.5 µM (inactive)
[41]
  GI50: 43 µM (inactive)
[42]
  GI50: 23.6 µM (inactive)
[43]
  GI50: 29.7 µM (inactive)
[44]
  GI50: 54.1 µM (inactive)
[45]
  GI50: 26.9 µM (inactive)
[46]
  GI50: 46.7 µM (inactive)
[47]
  GI50: 22.6 µM (inactive)
[48]
  GI50: 50.7 µM (inactive)
[49]
  GI50: 18.8 µM (inactive)
[50]
  GI50: 13.2 µM (inactive)
[51]
  GI50: 27.5 µM (inactive)
[52]
  GI50: 46.8 µM (inactive)
[53]
  GI50: 81.5 µM (inactive)
[54]
  GI50: 23.4 µM (inactive)
[55]
  GI50: 21.2 µM (inactive)
[56]
  GI50: > 94.6 µM (inactive)
[57]
  GI50: 19.3 µM (inactive)
[58]
  GI50: 45.9 µM (inactive)
[59]
  GI50: 21.9 µM (inactive)
